# From PubChem BioAssay (NCI)
#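 Test compounds were applied to cells in 96-well plates for 48 hours at 5 doses. GI50 marks 50% less growth. TGI marks complete inhibition of growth.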
# Assays:
# Assay in all cases: inhibition of tumour cell growth, NCI panel, 48 h
# [1] = test system: M14 melanoma
# [2] = test system: MALME-3M melanoma
# [3] = test system: CCRF-CEM leukemia
# [4] = test system: HCT-15 colon
# [5] = test system: UO-31 renal
# [6] = test system: NCI-H23 lung
# [7] = test system: KM12 colon
# [8] = test system: MDA-MB-435
# [9] = test system: SNB-75 CNS
# [10] = test system: RXF 393 renal
# [11] = test system: SR leukemia
# [12] = test system: A549 NSCLC
# [13] = test system: TK-10 renal
# [14] = test system: NCI-H460 lung
# [15] = test system: SF-268 CNS
# [16] = test system: U251 CNS
# [17] = test system: K-562 leukemia
# [18] = test system: IGROV1 ovarian
# [19] = test system: COLO 205 colon
# [20] = test system: MDA-MB-231 breast
# [21] = test system: PC-3 prostate
# [22] = test system: 786-0 renal
# [23] = test system: CAKI-1 renal
# [24] = test system: A498 renal
# [25] = test system: EKVX NSCLC
# [26] = test system: HOP-92 NSCLC
# [27] = test system: NCI-H226 lung
# [28] = test system: SK-MEL-28 melanoma
# [29] = test system: HL-60(TB) leukemia
# [30] = test system: SW-620 colon
# [31] = test system: UACC-62 melanoma
# [32] = test system: SN12C renal
# [33] = test system: OVCAR-4 ovarian
# [34] = test system: SK-MEL-5 melanoma
# [35] = test system: HCC-2998 colon
# [36] = test system: OVCAR-5 ovarian
# [37] = test system: SNB-19 CNS
# [38] = test system: DU-145 prostate
# [39] = test system: OVCAR-8 ovarian
# [40] = test system: ACHN renal
# [41] = test system: T-47D breast
# [42] = test system: SF-295 CNS
# [43] = test system: HS 578T breast
# [44] = test system: SK-MEL-2 melanoma
# [45] = test system: UACC-257 melanoma
# [46] = test system: LOX IMVI melanoma
# [47] = test system: SF-539 CNS
# [48] = test system: SK-OV-3 ovarian
# [49] = test system: MCF7 breast
# [50] = test system: MOLT-4 leukemia
# [51] = test system: OVCAR-3 ovarian
# [52] = test system: HCT-116 colon
# [53] = test system: NCI/ADR-RES ovarian
# [54] = test system: HOP-62 NSCLC
# [55] = test system: HT29 colon
# [56] = test system: RPMI-8226 leukemia
# [57] = test system: NCI-H522 lung
structure (smiles),measurement,setting,value
CC(C)(C)n1cc(-c2ccnc(NCCCNS(=O)(=O)c3cccc4ccccc34)c2)c(-c2cccc(O)c2)n1,GI50,[1],1.68 µM
same,TGI,[1],3.21 µM
same,GI50,[2],1.51 µM
same,TGI,[2],3.18 µM
same,GI50,[3],2.44 µM
same,TGI,[3],> 100 µM
same,GI50,[4],1.53 µM
same,TGI,[4],3.64 µM
same,GI50,[5],2.26 µM
same,TGI,[5],7.97 µM
same,GI50,[6],1.78 µM
same,TGI,[6],3.84 µM
same,GI50,[7],2.34 µM
same,TGI,[7],5.42 µM
same,GI50,[8],1.76 µM
same,TGI,[8],3.37 µM
same,GI50,[9],1.88 µM
same,TGI,[9],5.48 µM
same,GI50,[10],1.52 µM
same,TGI,[10],3.06 µM
same,GI50,[11],1.4 µM
same,TGI,[11],5.65 µM
same,GI50,[12],2.29 µM
same,TGI,[12],5.99 µM
same,GI50,[13],2.85 µM
same,TGI,[13],9.73 µM
same,GI50,[14],1.93 µM
same,TGI,[14],3.8 µM
same,GI50,[15],2.77 µM
same,TGI,[15],8.02 µM
same,GI50,[16],1.73 µM
same,TGI,[16],3.87 µM
same,GI50,[17],1.48 µM
same,TGI,[17],> 100 µM
same,GI50,[18],2.14 µM
same,TGI,[18],4.68 µM
same,GI50,[19],1.89 µM
same,TGI,[19],3.72 µM
same,GI50,[20],2.32 µM
same,TGI,[20],5.64 µM
same,GI50,[21],1.85 µM
same,TGI,[21],5.57 µM
same,GI50,[22],2.09 µM
same,TGI,[22],5.12 µM
same,GI50,[23],2.49 µM
same,TGI,[23],7.04 µM
same,GI50,[24],1.37 µM
same,TGI,[24],5.1 µM
same,GI50,[25],2.13 µM
same,TGI,[25],6.32 µM
same,GI50,[26],1.71 µM
same,TGI,[26],5.07 µM
same,GI50,[27],1.97 µM
same,TGI,[27],4.36 µM
same,GI50,[28],1.67 µM
same,TGI,[28],3.24 µM
same,GI50,[29],2.68 µM
same,TGI,[29],7.26 µM
same,GI50,[30],1.81 µM
same,TGI,[30],3.62 µM
same,GI50,[31],1.67 µM
same,TGI,[31],3.28 µM
same,GI50,[32],1.73 µM
same,TGI,[32],3.33 µM
same,GI50,[33],1.92 µM
same,TGI,[33],4.75 µM
same,GI50,[34],1.51 µM
same,TGI,[34],2.85 µM
same,GI50,[35],1.87 µM
same,TGI,[35],3.37 µM
same,GI50,[36],1.98 µM
same,TGI,[36],4.06 µM
same,GI50,[37],2.63 µM
same,TGI,[37],7.21 µM
same,GI50,[38],2.65 µM
same,TGI,[38],7.45 µM
same,GI50,[39],2.38 µM
same,TGI,[39],6.28 µM
same,GI50,[40],2.7 µM
same,TGI,[40],7.25 µM
same,GI50,[41],2.22 µM
same,TGI,[41],6.18 µM
same,GI50,[42],1.8 µM
same,TGI,[42],3.52 µM
same,GI50,[43],1.89 µM
same,TGI,[43],4.8 µM
same,GI50,[44],1.88 µM
same,TGI,[44],4.06 µM
same,GI50,[45],2.07 µM
same,TGI,[45],4.39 µM
same,GI50,[46],1.73 µM
same,TGI,[46],3.28 µM
same,GI50,[47],1.83 µM
same,TGI,[47],3.52 µM
same,GI50,[48],2.63 µM
same,TGI,[48],7.23 µM
same,GI50,[49],1.91 µM
same,TGI,[49],4.06 µM
same,GI50,[50],2 µM
same,TGI,[50],5.5 µM
same,GI50,[51],2.06 µM
same,TGI,[51],4.22 µM
same,GI50,[52],1.4 µM
same,TGI,[52],2.89 µM
COC(=O)[C@@H]1CN(C(=O)Cc2ccccc2)C(=O)N1,TGI,[1],> 100 µM
same,TGI,[2],> 100 µM
same,TGI,[3],> 100 µM
same,TGI,[53],> 100 µM
same,TGI,[5],> 100 µM
same,TGI,[6],> 100 µM
same,TGI,[7],> 100 µM
same,TGI,[54],> 100 µM
same,TGI,[8],> 100 µM
same,TGI,[9],> 100 µM
same,TGI,[10],> 100 µM
same,TGI,[11],> 100 µM
same,TGI,[55],> 100 µM
same,TGI,[12],> 100 µM
same,TGI,[13],> 100 µM
same,TGI,[14],> 100 µM
same,TGI,[15],> 100 µM
same,TGI,[16],> 100 µM
same,TGI,[17],> 100 µM
same,TGI,[18],> 100 µM
same,TGI,[19],> 100 µM
same,TGI,[20],> 100 µM
same,TGI,[21],> 100 µM
same,TGI,[22],> 100 µM
same,TGI,[23],> 100 µM
same,TGI,[24],> 100 µM
same,TGI,[25],> 100 µM
same,TGI,[26],> 100 µM
same,TGI,[27],> 100 µM
same,TGI,[28],> 100 µM
same,TGI,[29],> 100 µM
same,TGI,[30],> 100 µM
same,TGI,[31],> 100 µM
same,TGI,[32],> 100 µM
same,TGI,[33],> 100 µM
same,TGI,[34],> 100 µM
same,TGI,[36],> 100 µM
same,TGI,[37],> 100 µM
same,TGI,[38],> 100 µM
same,TGI,[39],> 100 µM
same,TGI,[40],> 100 µM
same,TGI,[41],> 100 µM
same,TGI,[56],> 100 µM
same,TGI,[42],> 100 µM
same,TGI,[57],> 100 µM
same,TGI,[43],> 100 µM
same,TGI,[45],> 100 µM
same,TGI,[46],> 100 µM
same,TGI,[47],> 100 µM
same,TGI,[50],> 100 µM
same,TGI,[51],> 100 µM
same,TGI,[52],> 100 µM
